Experimental data as given in paper PMC7894426, “Influence of verapamil on the pharmacokinetics of rotundic acid in rats and its potential mechanism” (Pharmaceutical Biology, 2021).

Columns and labels:
[1] = target: T1, CYP2D6 (Homo sapiens, UniProt P10635); assay: Metabolic depletion of RA by rhCYP2D6; assay type: in vitro ADME; settings: rhCYP2D6 25 pM, RA 2 µM, 30 min
T1 construct: purchased Research Institute for Liver Disease (Shanghai) Co., Ltd
Experimental: (§1) The metabolic stability of RA was evaluated against five rhCYPs (1A2, 2C8, 2C9, 2D6 and 3A4). Incubation was taken place in 0.1 M sodium phosphate buffer (pH 7.4) containing 5 mM MgCl2, 1 mM NADPH, and 25 pM rhCYP enzyme protein at 37 °C in a total volume of 1 mL. After pre-incubated for 5 min, the reactions were started by the addition of RA methanol solution (final concentration of 2 µM). Aliquots of 50 µL incubation solution were collected from the reaction at 0, 5, 10, 20 and 30 min, and quenched with 50 µL ice-cold methanol (containing 0.5% formic acid) and 100 µL ice-cold acetonitrile containing IS (10 ng/mL). The heat-inactivated rhCYP3A4 were used as negative controls. All reactions were conducted in triplicate, followed by LC-MS/MS analysis. Results presented in percentage of drug remaining in incubation starting at 100% at time zero.

[2] = rats, oral administration; ref Nan et al. [2016]; cited from earlier work
[3] = tested on: P-gp; assay: Bidirectional transport across Caco-2 cell monolayer; assay type: in vitro ADME, human; settings: human, pH 7.4, with verapamil 50 µM, Caco-2, 25 µM RA, + 50 µM verapamil
Experimental: The qualified monolayers were used for transport studies. […] Each experiment was carried out in triplicate.

[4] = tested on: MDCKII-Mock cells; assay: MTS cell-proliferation assay; assay type: cell-based, canine; settings: 25 µM RA
[5] = target: T2, CYP2C8 (Homo sapiens, UniProt P10632); assay: Metabolic depletion of RA by rhCYP2C8; assay type: in vitro ADME; settings: rhCYP2C8 25 pM, RA 2 µM, 30 min
T2 construct: purchased Research Institute for Liver Disease (Shanghai) Co., Ltd
T2 sequence (P10632 1-490): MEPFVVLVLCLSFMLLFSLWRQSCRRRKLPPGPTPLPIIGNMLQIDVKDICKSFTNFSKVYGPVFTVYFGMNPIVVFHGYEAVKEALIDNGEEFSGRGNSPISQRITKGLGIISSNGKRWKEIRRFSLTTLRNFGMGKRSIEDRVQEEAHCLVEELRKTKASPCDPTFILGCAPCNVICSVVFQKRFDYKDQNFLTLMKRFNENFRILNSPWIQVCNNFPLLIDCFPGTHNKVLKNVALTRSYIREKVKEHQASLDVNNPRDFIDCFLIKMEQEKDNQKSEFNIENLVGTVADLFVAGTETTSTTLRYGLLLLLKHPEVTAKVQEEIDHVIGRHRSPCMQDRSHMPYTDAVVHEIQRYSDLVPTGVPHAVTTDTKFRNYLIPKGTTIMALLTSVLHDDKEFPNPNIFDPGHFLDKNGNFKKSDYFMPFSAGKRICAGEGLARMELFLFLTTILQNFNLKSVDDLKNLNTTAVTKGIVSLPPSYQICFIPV
Experimental: as §1

T1 sequence (P10635 whole entry): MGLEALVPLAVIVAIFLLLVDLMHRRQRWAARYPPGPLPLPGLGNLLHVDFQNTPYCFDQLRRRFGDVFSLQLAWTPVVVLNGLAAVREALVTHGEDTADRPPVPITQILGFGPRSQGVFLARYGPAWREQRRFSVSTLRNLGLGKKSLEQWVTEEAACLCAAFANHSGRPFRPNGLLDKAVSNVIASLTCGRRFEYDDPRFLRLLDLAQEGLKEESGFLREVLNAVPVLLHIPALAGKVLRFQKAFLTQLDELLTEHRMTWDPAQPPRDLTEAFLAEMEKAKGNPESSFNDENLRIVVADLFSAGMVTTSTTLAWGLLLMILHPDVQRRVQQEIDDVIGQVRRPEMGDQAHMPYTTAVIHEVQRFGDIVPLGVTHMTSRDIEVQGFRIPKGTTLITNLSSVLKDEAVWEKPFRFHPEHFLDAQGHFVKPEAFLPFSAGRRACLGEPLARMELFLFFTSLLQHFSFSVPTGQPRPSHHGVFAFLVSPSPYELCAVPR

RA converted [1]: < 30% | Papp A→B at 10 min, 25 µM ([3]; 10 min): 1.07 ± 0.212 ×10⁻⁶ cm/s | Papp B→A at 10 min, 25 µM ([3]; 10 min): 2.73 ± 0.348 ×10⁻⁶ cm/s | efflux ratio at 10 min, 25 µM ([3]; 10 min, read-out: RE (efflux ratio)): 2.55 | Papp A→B at 20 min, 25 µM ([3]; 20 min): 2.45 ± 0.707 ×10⁻⁶ cm/s | Papp B→A at 20 min, 25 µM ([3]; 20 min): 5.32 ± 0.306 ×10⁻⁶ cm/s | efflux ratio at 20 min, 25 µM ([3]; 20 min, read-out: RE (efflux ratio)): 2.17 | Papp A→B at 40 min, 25 µM ([3]; 40 min): 4.69 ± 0.945 ×10⁻⁶ cm/s | Papp B→A at 40 min, 25 µM ([3]; 40 min): 5.68 ± 0.683 ×10⁻⁶ cm/s | efflux ratio at 40 min, 25 µM ([3]; 40 min, read-out: RE (efflux ratio)): 1.21 | Papp A→B at 60 min, 25 µM ([3]; 60 min): 4.71 ± 0.524 ×10⁻⁶ cm/s | Papp B→A at 60 min, 25 µM ([3]; 60 min): 5.29 ± 0.438 ×10⁻⁶ cm/s | efflux ratio at 60 min, 25 µM ([3]; 60 min, read-out: RE (efflux ratio)): 1.12 | RA converted [5]: < 30%
Structure (SMILES): C[C@@H]1CC[C@]2(C(=O)O)CC[C@]3(C)C(=CC[C@@H]4[C@@]5(C)CC[C@H](O)[C@@](C)(CO)[C@@H]5CC[C@]43C)[C@@H]2[C@]1(C)O [RA, Rotundic acid]
oral bioavailability [2]: 4.52% | effect on cell proliferation (MTS) [4]: did not influence the cell proliferation
